Test results as given in publication PMC5484485, “In vitro and in vivo effects of kisspeptin antagonists p234, p271, p354, and p356 on GPR54 activation” (PLoS ONE, 2017).
Values belong to the molecule of their own block, whether it stands above or below them. Square brackets hold non-standard residues; d marks the D form. Ends that are not written are not given here.

What was measured:
human GPR54 [1] = target: T1, human GPR54 (Homo sapiens, UniProt Q969F8); assay: Flow cytometric calcium flux assay, response to peptide alone (agonist / intrinsic activity); assay type: cell-based; set-up: host or cells: rat hematopoietic CHEM1 cells expressing endogenous Galpha15; settings: 10^-13 to 10^-5 M, n = 3; for EC50: CHEM1-GPR54 cells in suspension, Fluo-3 AM, flow cytometry; for intrinsic calcium response: any tested concentration
Description: In vitro analyses of the effects of kisspeptin and kisspeptin antagonists, were performed using HT[…] cells (rat hematopoietic CHEM1 cells expressing endogenous Gα15 and, stably expressing the human GPR54 receptor (Millipore BV, the Netherlands), CHEM1-GPR54. Cells were counted and suspended in HBSS+++ at a concentration of 5*10^6 cells/ml. To load the cells with the fluorescent dye ester they were incubated in HBSS+++ adjusted to a concentration of 2 μM Fluo-3 AM (Molecular Probes, Life Technologies, the Netherlands) for 1h at 37°C under agitation in the dark. After incubation, the cells were washed by adding HBSS+++ to a volume of 10 ml followed by centrifugation (5 min, 150 x g) to remove excess of Fluo-3AM. […] Thereafter the tube was removed briefly and 25 μl peptide (see below) was added, after which aspiration and analysis continued. For statistical analyses fluorescent data recorded during the time interval 30-60 seconds after initiation of measurement were used. […] Experiments were performed 3 times. Representative flow cytometry results are depicted in Fig 1. […] We then assessed whether these antagonists could compete with KP10 for its receptor. […] For this purpose 25 μl quantities of the antagonists were added to 200 μl of Fluo-3 AM labelled cells (10^6 cells/ml) and incubated for 15 min. […] Peptides p354 and p356 were tested three times with both human and canine KP10; while peptides p234 and p271 were tested three times with human KP10 and once with canine KP10. […] A multivariate general linear model was set up to analyze differences in calcium response between the different concentrations, with Dunnett's test as a post hoc procedure for the antagonists and Bonferroni's test for the agonists.

CHEM1-GPR54 cells = target: T2, CHEM1-GPR54 cells (Homo sapiens, UniProt Q969F8); assay: Preliminary calcium flux assay with adherent CHEM1-GPR54 cells (unpublished); assay type: cell-based; settings: too few repeats for statistics
T2 construct: host or cells: rat hematopoietic CHEM1 cells expressing endogenous Galpha15

circulating LH / puberty = settings: cited from earlier work
Description: The development of kisspeptin antagonists contributed to an improved understanding of the role of kisspeptin in the reproductive system. Roseweir et al. developed several KP10 analogues and tested their effect on inositol phosphate (IP) release in Chinese hamster ovarian (CHO) cells stably expressing the human GPR54. […] The kisspeptin antagonists were administered intravenously in a dose of 50 μg/kg/h, and had no effect on either the basal plasma LH concentration during the continuous administration or on the KP10-induced LH response. These findings are in line with a previous study in female dogs. […] Adult male rats received an intrape ...

human GPR54 [2] = target: T1, human GPR54; settings: cited from earlier work
From the text: The development of kisspeptin antagonists contributed to an improved understanding of the role of kisspeptin in the reproductive system. Roseweir et al. developed several KP10 analogues and tested their effect on inositol phosphate (IP) release in Chinese hamster ovarian (CHO) cells stably expressing the human GPR54. […] The peptide antagonists are KP10 analogs with substitutions at several positions, which should result in good receptor binding affinity but reduced receptor activation. None of the peptides tested in the present study prevented or inhibited the KP10-stimulated calcium response and thus receptor activation.

human GPR54 [3] = target: T1, human GPR54; assay: Flow cytometric calcium flux assay, KP10-induced response after 15 min pre-incubation with antagonist; assay type: cell-based; set-up: host or cells: rat hematopoietic CHEM1 cells expressing endogenous Galpha15; settings: all concentrations 10^-13 to 10^-5 M; 10^-8 M KP10; 15 min pre-incubation; P = 1.00
Description: In vitro analyses of the effects of kisspeptin and kisspeptin antagonists, were performed using HT[…] cells (rat hematopoietic CHEM1 cells expressing endogenous Gα15 and, stably expressing the human GPR54 receptor (Millipore BV, the Netherlands), CHEM1-GPR54. Cells were counted and suspended in HBSS+++ at a concentration of 5*10^6 cells/ml. To load the cells with the fluorescent dye ester they were incubated in HBSS+++ adjusted to a concentration of 2 μM Fluo-3 AM (Molecular Probes, Life Technologies, the Netherlands) for 1h at 37°C under agitation in the dark. After incubation, the cells were washed by adding HBSS+++ to a volume of 10 ml followed by centrifugation (5 min, 150 x g) to remove excess of Fluo-3AM. […] Thereafter the tube was removed briefly and 25 μl peptide (see below) was added, after which aspiration and analysis continued. For statistical analyses fluorescent data recorded during the time interval 30-60 seconds after initiation of measurement were used. […] We then assessed whether these antagonists could compete with KP10 for its receptor. […] For this purpose 25 μl quantities of the antagonists were added to 200 μl of Fluo-3 AM labelled cells (10^6 cells/ml) and incubated for 15 min. […] Peptides p354 and p356 were tested three times with both human and canine KP10; while peptides p234 and p271 were tested three times with human KP10 and once with canine KP10. To analyze the effects of different concentrations of the KP antagonists on the calcium response due to KP10 addition, the differences in fluorescence before and after KP10 were calculated (the calcium response). The calcium response ratios were calculated as the calcium response of the CHEM1-GPR54 cells pre-incubated with different concentrations of KP antagonist and the control (the calcium response of the cells without KP antagonist). These calcium response ratios were log transformed and used for further analysis by univariate analysis of variance, with the Dunnett's test as post hoc test. The calcium response ratios were set as dependent variables and the different concentrations of the antagonists and the two types of KP10 were used as fixed factors. The residuals were normally distributed.

plasma LH concentration = assay: Plasma LH in anestrous Beagle bitches during antagonist infusion and after cKP10 bolus; assay type: in vivo, dog; settings: n = 6
From the text: Thirteen adult anestrous Beagle bitches were used for this study. Six dogs with a median age of 89 months (range 43–122 months) were used as control group, receiving cKP10 without an antagonist. Eight dogs with a median age of 52 months (range 31–116 months) were used for the antagonist experiments. One dog was first used in the control group and 12 months later for the antagonist experiments. Of the eight dogs used for the antagonist experiments, four received p271, p354, and p356. In two of the eight dogs both p354 and p356 were tested, while in the remaining two dogs only p271 was tested, in order to test every antagonist in 6 dogs. The time between testing of different kisspeptin antagonists was at least 5 days (range 5–15 days) to ensure that there were no peptide residues. Kisspeptin antagonist p234 per se was not tested in vivo because p271 is in fact p234 with a penetratin tag to enhance passage across the blood-brain barrier, as has been described for use with peripheral administration.
Kisspeptin antagonists (50 μg/kg/h) were administered continuously for three hours via a catheter in the cephalic vein. Two hours after the start of the infusion, a single bolus of cKP10 (0.5 μg/kg) was administered intravenously. Blood samples were collected from the jugular vein by venipuncture at -40 min and 0 min before the antagonist infusion, and then every 30 min for two hours. After the administration of cKP10, blood samples were collected at 10, 20, 40, and 60 min (i.e., 130, 140, 160, and 180 min after the start of the antagonist infusion).
As a control, KP stimulation tests (without the administration of a kisspeptin antagonist) were performed in six dogs. Blood samples were collected from the jugular vein by venipuncture at -40 min and 0 min before, and then at 10, 20, 40, and 60 min after administration of cKP10 (0.5 μg/kg). Plasma LH concentrations were measured in all blood samples.
Plasma LH concentrations were measured with a heterologous radioimmunoassay validated for the dog, as described previously. The intra- and interassay CVs for values above 0.5 μg/l were 2.3 and 10.5%, respectively, and the limit of quantitation was 0.3 μg/l.
In both groups of dogs (experimental and control), the basal plasma LH concentration was calculated for each dog as the mean of the values at –40 and 0 min before cKP10 or antagonist administration. All LH values that exceeded the mean of all basal samples plus 3 SD were attributed to pulsatile secretion and were treated as outliers and excluded from statistical analysis. Log transformation of plasma LH concentrations was used because data were not normally distributed. A linear mixed model was used to analyze differences in plasma LH concentrations before and after KP10, with or without a kisspeptin antagonist (group effects: p271, p354, p356, and controls), with Bonferroni correction. P<0.05 was considered significant.

kisspeptin receptor = settings: ref unpublished data; cited from earlier work
Description: The following peptides were tested for antagonistic properties on the kisspeptin receptor: p234 ((D-Ala)-Asn-Trp-Asn-Gly-Phe-Gly-(D-Trp)-Arg-Phe-NH2), p271 (Arg-Arg-Met-Lys-Trp-Lys-Lys-Tyr-(D-Ala)-Asn-Trp-Asn-Gly-Phe-Gly-(D-Trp)-Arg-Phe-NH2), p354 ((D-Ala)-Tyr-Asn-Phe-Asn-Gly-Phe-Gly-(D-Trp)-Arg-Phe-NH2), and p356 ((D-Ala)-Tyr-Asn-Trp-Asn-Gly-Phe-Gly-(D-Trp)-Lys-Phe-NH2). Peptide 354 and p356 are next generation analogs refining p234.

[4] = antagonist 50 μg/kg/h iv, cKP10 0.5 μg/kg iv

T1 sequence (Q969F8 whole entry): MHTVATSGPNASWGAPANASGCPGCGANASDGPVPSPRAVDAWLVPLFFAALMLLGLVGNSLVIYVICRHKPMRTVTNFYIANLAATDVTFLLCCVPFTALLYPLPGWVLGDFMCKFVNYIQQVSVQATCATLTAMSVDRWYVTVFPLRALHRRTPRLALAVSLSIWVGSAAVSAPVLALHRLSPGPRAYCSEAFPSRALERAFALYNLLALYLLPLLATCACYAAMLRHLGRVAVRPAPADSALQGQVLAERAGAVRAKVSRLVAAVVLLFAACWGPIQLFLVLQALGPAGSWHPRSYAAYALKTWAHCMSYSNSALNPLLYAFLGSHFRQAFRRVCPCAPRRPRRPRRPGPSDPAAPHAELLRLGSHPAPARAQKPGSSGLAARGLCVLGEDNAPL
T2 sequence (Q969F8 whole entry): as above

EC50 (human GPR54 [1]): 1.2 nM
Molecule: CC(C)C[C@H](NC(=O)CNC(=O)[C@H](Cc1ccccc1)NC(=O)[C@H](CO)NC(=O)[C@H](CC(N)=O)NC(=O)[C@H](Cc1c[nH]c2ccccc12)NC(=O)[C@H](CC(N)=O)NC(=O)[C@@H](N)Cc1ccc(O)cc1)C(=O)N[C@@H](CCCNC(=N)N)C(=O)N[C@@H](Cc1ccccc1)C(N)=O [hKP10, Tyr-Asn-Trp-Asn-Ser-Phe-Gly-Leu-Arg-Phe-NH2, reference compound]

EC50 (human GPR54 [1]): 8 nM
Molecule: YNWNVFGLRY-NH2 [cKP10, Tyr-Asn-Trp-Asn-Val-Phe-Gly-Leu-Arg-Tyr-NH2, reference compound]

inhibition of KP10-induced calcium response, adherent cells (CHEM1-GPR54 cells): could not be inhibited
difference in calcium response ratio between controls and antagonist (human GPR54 [3]): not significant
Molecule: [dA]NWNGFG[dW]RF-NH2 [p234, kisspeptin antagonist, KP10 analog]
effect of antagonist alone on basal plasma LH (circulating LH / puberty; intact rats and mice): did not lower the basal plasma LH concentration
effect on circulating LH when co-administrated with KP10 (circulating LH / puberty; intracerebroventricular): prevented an increase in the circulating LH concentration
effect on vaginal opening (indicator of puberty) (circulating LH / puberty; rats, intracerebroventricular): delayed vaginal opening
inhibitory effect on IP release in vitro, rank among KP10 analogues (human GPR54 [2]; CHO cells stably expressing human GPR54): most potent inhibitory effect
inhibition of KP10-induced inositol phosphate (IP) production (human GPR54 [2]; CHO cells that express GPR54): 93%
intrinsic calcium response (human GPR54 [1]): no significant intrinsic calcium response

difference in calcium response ratio between controls and antagonist (human GPR54 [3]): not significant
Molecule: [dA]YNFNGFG[dW]RF-NH2 [p354]
Median (and range) plasma LH, t = 30 (plasma LH concentration; 30 min of antagonist infusion 50 μg/kg/h iv): 3.7 (2.1–13.1) μg/L
Median (and range) plasma LH, t = 60 (plasma LH concentration; 60 min of antagonist infusion 50 μg/kg/h iv): 3.2 (2.2–7.2) μg/L
Median (and range) plasma LH, t = 120 (plasma LH concentration; 120 min of antagonist infusion 50 μg/kg/h iv, before cKP10): 5.2 (2.6–15.7) μg/L
median maximum increment in plasma LH concentration after cKP10 during antagonist administration (plasma LH concentration; [4]): 8.1 µg/L
range of maximum increment in plasma LH concentration after cKP10 during antagonist administration (plasma LH concentration; [4]): 5.0 to 12.5 µg/L
Median (and range) plasma LH, t = 130 / t = 10* (plasma LH concentration; antagonist infusion 50 μg/kg/h iv, 10 min after cKP10 0.5 μg/kg iv): 13.5 (8.4–20.3) μg/L
Median (and range) plasma LH, t = 140 / t = 20* (plasma LH concentration; antagonist infusion 50 μg/kg/h iv, 20 min after cKP10 0.5 μg/kg iv): 10.0 (5.5–13.0) μg/L
Median (and range) plasma LH, t = 160 / t = 40* (plasma LH concentration; antagonist infusion 50 μg/kg/h iv, 40 min after cKP10 0.5 μg/kg iv): 6.4 (4.7–9.1) μg/L
Median (and range) plasma LH, t = 180 / t = 60* (plasma LH concentration; antagonist infusion 50 μg/kg/h iv, 60 min after cKP10 0.5 μg/kg iv): 4.7 (3.7–9.9) μg/L
Median (and range) plasma LH, Basal (plasma LH concentration; before antagonist infusion (mean of -40 and 0 min per dog)): 4.2 (2.8–6.7) μg/L
effect on basal plasma LH concentration (plasma LH concentration; continuous iv 50 μg/kg/h, anestrous bitches): did not cause significant alterations
binding and inhibition of kisspeptin action on inositol generation, potency range (kisspeptin receptor): nanomolar range
intrinsic calcium response (human GPR54 [1]): no significant intrinsic calcium response
